Results as given in publication PMC6385246, “The human gut Firmicute Roseburia intestinalis is a primary degrader of dietary β-mannans” (Nature Communications, 2019).

Legend:
[1] = biological target: T1, RiPgm (Roseburia intestinalis, UniProt C7G6G9); experiment: HPAEC-PAD of M6P formed; format: biochemical; conditions: 10 mM sodium phosphate pH 5.8, 1 mM MgCl2, 37 °C
T1 construct: gene pgcA_1; recombinant from E. coli, untagged (stop codon before His-tag), HIC purified; encoded in MULL (ROSINTL182_05469-83), own locus tag not in text
T1 sequence (C7G6G9 1-572): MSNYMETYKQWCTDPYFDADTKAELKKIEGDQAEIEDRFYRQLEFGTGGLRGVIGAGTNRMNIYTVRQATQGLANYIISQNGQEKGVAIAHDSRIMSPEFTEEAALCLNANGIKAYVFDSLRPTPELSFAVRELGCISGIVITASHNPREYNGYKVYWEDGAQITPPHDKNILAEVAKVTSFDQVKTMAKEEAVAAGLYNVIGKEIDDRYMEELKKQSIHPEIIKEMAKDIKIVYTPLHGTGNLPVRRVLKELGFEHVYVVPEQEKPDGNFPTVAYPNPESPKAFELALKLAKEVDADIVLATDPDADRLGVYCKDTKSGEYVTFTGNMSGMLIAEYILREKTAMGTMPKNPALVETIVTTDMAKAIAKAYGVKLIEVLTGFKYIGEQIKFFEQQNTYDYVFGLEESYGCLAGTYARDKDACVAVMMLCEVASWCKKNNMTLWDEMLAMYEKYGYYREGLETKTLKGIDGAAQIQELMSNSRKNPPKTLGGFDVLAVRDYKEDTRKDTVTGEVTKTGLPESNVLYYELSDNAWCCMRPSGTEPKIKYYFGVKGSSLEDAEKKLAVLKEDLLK

[2] = biological target: T2, RiMep (Roseburia intestinalis, UniProt C7G6G3); experiment: HPAEC-PAD of epimerization products; format: biochemical; conditions: 10 mM sodium phosphate pH 5.8, 37 °C
T2 construct: gene ce-ne1; recombinant from E. coli, untagged (stop codon before His-tag), HIC purified
T2 sequence (C7G6G3 1-409): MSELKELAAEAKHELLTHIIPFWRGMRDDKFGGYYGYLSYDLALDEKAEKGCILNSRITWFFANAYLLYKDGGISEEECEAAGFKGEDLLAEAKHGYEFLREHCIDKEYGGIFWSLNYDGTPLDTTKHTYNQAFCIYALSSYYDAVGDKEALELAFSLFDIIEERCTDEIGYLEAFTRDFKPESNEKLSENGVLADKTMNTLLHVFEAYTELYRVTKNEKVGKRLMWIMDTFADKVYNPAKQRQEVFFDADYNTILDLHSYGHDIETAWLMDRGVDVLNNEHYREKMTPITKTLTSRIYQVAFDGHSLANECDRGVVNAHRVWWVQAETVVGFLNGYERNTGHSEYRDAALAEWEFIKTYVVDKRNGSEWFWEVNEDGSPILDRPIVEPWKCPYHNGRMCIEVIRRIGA

[3] = biological target: T3, RiGH113 (Roseburia intestinalis, UniProt C7G6H0); experiment: HPAEC-PAD of mannose released; format: biochemical; conditions: 10 mM sodium phosphate pH 5.8, 37 °C, overnight
T3 construct: gene RIL182_01090; recombinant from E. coli, untagged (stop codon before His-tag), HIC purified
T3 sequence (C7G6H0 1-311): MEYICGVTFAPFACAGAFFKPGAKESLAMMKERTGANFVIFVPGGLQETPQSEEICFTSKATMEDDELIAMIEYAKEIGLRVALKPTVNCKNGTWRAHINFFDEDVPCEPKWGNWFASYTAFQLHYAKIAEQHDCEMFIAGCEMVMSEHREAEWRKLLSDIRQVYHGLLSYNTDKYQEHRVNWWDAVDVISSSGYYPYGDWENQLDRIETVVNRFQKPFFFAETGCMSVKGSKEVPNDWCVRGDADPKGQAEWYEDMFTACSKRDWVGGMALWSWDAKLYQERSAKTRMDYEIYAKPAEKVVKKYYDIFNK

[4] = biological target: T4, RiMnBP (Roseburia intestinalis, UniProt C7G6G6); experiment: ITC; format: binding; conditions: 25 °C, 10 mM sodium phosphate pH 6.5
T4 construct: gene msmE; mature form, cloned in pETM-11, expressed in E. coli
T4 sequence (C7G6G6 23-489): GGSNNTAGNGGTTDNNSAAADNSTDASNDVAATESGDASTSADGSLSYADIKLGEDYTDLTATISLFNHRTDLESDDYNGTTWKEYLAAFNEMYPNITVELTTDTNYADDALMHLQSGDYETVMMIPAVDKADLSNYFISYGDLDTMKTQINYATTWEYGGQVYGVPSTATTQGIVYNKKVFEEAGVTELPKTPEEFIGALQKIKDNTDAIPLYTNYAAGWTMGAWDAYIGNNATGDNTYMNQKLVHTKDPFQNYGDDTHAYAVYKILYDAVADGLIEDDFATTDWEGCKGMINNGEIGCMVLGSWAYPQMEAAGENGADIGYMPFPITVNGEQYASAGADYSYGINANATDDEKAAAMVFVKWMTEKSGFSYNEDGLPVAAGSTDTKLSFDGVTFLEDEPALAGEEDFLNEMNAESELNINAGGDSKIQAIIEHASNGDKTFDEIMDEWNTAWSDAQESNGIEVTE

[5] = biological target: T5, RiCBM27 (Roseburia intestinalis, UniProt Z9TV37KX76); experiment: SPR (Biacore T100, CBM immobilized on NTA chip); format: binding; conditions: 25 °C, 20 mM phosphate/citrate pH 6.5, 150 mM NaCl
T5 construct: expressed in Escherichia coli, immobilized on NTA chip (His6-tag)
T5 sequence (Z9TV37KX76 38-185 limits assumed): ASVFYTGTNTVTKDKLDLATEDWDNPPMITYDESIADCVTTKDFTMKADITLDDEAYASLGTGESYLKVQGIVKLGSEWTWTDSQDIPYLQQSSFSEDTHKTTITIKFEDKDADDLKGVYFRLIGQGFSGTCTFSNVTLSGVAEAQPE
Text: SPR (Biacore T100, CBM immobilized on NTA chip) on RiCBM27

[6] = biological target: T6, RiCBM23 (Roseburia intestinalis); experiment: SPR (Biacore T100, CBM immobilized on NTA chip); format: binding; conditions: 25 °C, 20 mM phosphate/citrate pH 6.5, 150 mM NaCl
T6 construct: expressed in Escherichia coli, immobilized on NTA chip (His6-tag)
Text: SPR (Biacore T100, CBM immobilized on NTA chip) on RiCBM23

[7] = biological target: T7, RiGH130_2 (Roseburia intestinalis, UniProt C7G6G1); experiment: HPAEC-PAD of phosphorolysis products; format: biochemical; conditions: 100 mM sodium phosphate pH 5.8, 37 °C
T7 construct: gene RIL182_01100; recombinant from E. coli, C-terminal His6-tag
T7 sequence (C7G6G1 entry or part of it): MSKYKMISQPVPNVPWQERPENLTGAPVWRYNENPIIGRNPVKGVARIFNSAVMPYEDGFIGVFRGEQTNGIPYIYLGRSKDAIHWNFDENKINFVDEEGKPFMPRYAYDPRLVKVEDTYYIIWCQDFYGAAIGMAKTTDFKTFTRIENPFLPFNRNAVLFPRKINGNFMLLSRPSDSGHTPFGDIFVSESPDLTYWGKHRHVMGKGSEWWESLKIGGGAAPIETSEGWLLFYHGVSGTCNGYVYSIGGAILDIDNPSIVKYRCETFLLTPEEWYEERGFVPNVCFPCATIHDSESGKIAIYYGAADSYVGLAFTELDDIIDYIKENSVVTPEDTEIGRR

**Q.** With `O=P(O)(O)O[C@H]1O[C@H](CO)[C@@H](O)[C@H](O)[C@@H]1O` [M1P, mannose-1-phosphate] as the molecule, how does the “HPAEC-PAD of M6P formed” value [1] read?
**A.** RiPgm catalyzes the interconversion of M1P and mannose 6-phosphate (M6P)

**Q.** `OC[C@H]1O[C@@H](O[C@H]2[C@H](O)[C@H](O)C(O)O[C@@H]2CO)[C@@H](O)[C@@H](O)[C@@H]1O` (stereo partly drawn) [M2, mannobiose] was tested. Which “HPAEC-PAD of epimerization products” value [2] did it give?
**A.** RiMep was active on M2 and cellobiose (G2), releasing M1G1 and G1M1, respectively

**Q.** And the “HPAEC-PAD of mannose released” value [3]?
**A.** After overnight incubation with RiGH113, M2 was partially degraded to mannose

**Q.** Which results are given for `OC[C@H]1O[C@@H](O[C@H]2[C@H](O)[C@H](O)[C@H](O[C@H]3[C@H](O)[C@H](O)C(O)O[C@@H]3CO)O[C@@H]2CO)[C@@H](O)[C@@H](O)[C@@H]1O` (stereo partly drawn) [M3, mannotriose]?
**A.** Kd [4]: 2.62 µM; Kd [5]: 1590 ± 30 µM; Kd [6]: 230 ± 20 µM

**Q.** Which results are given for `OC[C@H]1O[C@@H](O[C@H]2[C@H](O)[C@H](O)[C@H](O[C@H]3[C@H](O)[C@H](O)[C@H](O[C@H]4[C@H](O)[C@H](O)C(O)O[C@@H]4CO)O[C@@H]3CO)O[C@@H]2CO)[C@@H](O)[C@@H](O)[C@@H]1O` (stereo partly drawn) [M4, mannotetraose]?
**A.** HPAEC-PAD of phosphorolysis products [7]: phosphorolyzed M4 into M3, M2 and mannose-1-phosphate (M1P); Kd [4]: 3.89 µM; Kd [5]: 658 ± 20 µM; Kd [6]: 130 ± 50 µM

**Q.** Which Kd [4] does the source give for `OC[C@H]1O[C@@H](O[C@H]2[C@H](O)[C@H](O)[C@H](O[C@H]3[C@H](O)[C@H](O)[C@H](O[C@H]4[C@H](O)[C@H](O)[C@H](O[C@H]5[C@H](O)[C@H](O)C(O)O[C@@H]5CO)O[C@@H]4CO)O[C@@H]3CO)O[C@@H]2CO)[C@@H](O)[C@@H](O)[C@@H]1O` (stereo partly drawn) [M5, mannopentaose] here?
**A.** 2.55 µM

**Q.** What about the Kd [5] of the same molecule?
**A.** 321 ± 20 µM

**Q.** And the Kd [6]?
**A.** 198 ± 70 µM

**Q.** Which Kd [4] does the source give for `OC[C@H]1O[C@@H](O[C@H]2[C@H](O)[C@H](O)[C@H](O[C@H]3[C@H](O)[C@H](O)[C@H](O[C@H]4[C@H](O)[C@H](O)[C@H](O[C@H]5[C@H](O)[C@H](O)[C@H](O[C@H]6[C@H](O)[C@H](O)C(O)O[C@@H]6CO)O[C@@H]5CO)O[C@@H]4CO)O[C@@H]3CO)O[C@@H]2CO)[C@@H](O)[C@@H](O)[C@@H]1O` (stereo partly drawn) [M6, mannohexaose] here?
**A.** 33.8 µM

**Q.** And the Kd [5]?
**A.** 165 ± 10 µM

**Q.** What about the Kd [6] of the same molecule?
**A.** 205 ± 40 µM

**Q.** With diacetylated mannopentaose [M5Ac2] as the molecule, how does the Kd [4] read?
**A.** 23.5 µM

**Q.** Which Kd [4] does the source give for diacetylated mannotetraose [M4Ac2] here?
**A.** 25.7 µM
